The record followed here is patent US20240156800A1, “EP300 DEGRADER AND USES THEREOF IN NEUROBLASTOMA” (DANA-FARBER CANCER INSTITUTE, INC., priority 2021, published 2024).

Entries after “also recorded” stand apart in the source; their conditions may differ.

For series [1], the system named is super-enhancer regulated and CRC genes. Put plainly: ERCC spike-in RNA-seq of xenograft tumor cells. It counts as in vivo, human. An excerpt: For in vivo analyses, tumors were removed from animals treated with either vehicle […] to filtering for single cells through a […] filter. Single cell suspensions were then solubilized in TRIzol™ (Ambion) as described above, with processing, including ERCC RNA spike in controls, treatment with RNAse-free DNAse I, and spin purification. Following preparation, there was sufficient material to proceed with RNAseq analysis for four vehicle control and three JQAD1 treated tumor specimen. Purified RNA samples were subjected to library construction with a low input RNA protocol followed by poly-adenylation preparation and sequencing using the Illumina NextSeq® 500 (paired end, 75 bp reads). Raw reads for RNA-seq of in vivo models were aligned first using hisat2 v2.1 in paired-end mode against the mm9 revision of the mouse genome to filter out contaminating mouse reads. Remaining reads were aligned to a reference genome containing the hg19 revision of the human reference and the sequences of ERCC spike-in probes. Expression was quantified using sorted BAMs, a gene reference built using ERCC sizes and RefSeq genes downloaded Jul. 15, 2017, and htseq-count with parameters -I gene_id -stranded=reverse -f bam -m intersection-strict. Read counts were converted to transcripts per million (TPM) and used for cell number-normalization. […]

Series [2] concerns Kelly-Cas9 control or CRBN knockout cells. Briefly: CellTiter-Glo assay of Kelly-Cas9 control or CRBN knockout cells. As to conditions: range of doses, seven days. It counts as cell-based, human. The protocol:
Cells were infected with lentiviruses encoding sgRNAs or treated with compounds as described. Colony assays were performed by replating cells at 500 cells per well in 6-well dishes and grown in regular growth media for 10 d before 100% methanol fixation, 0.05% crystal violet staining, and quantitation. Experiments were completed in triplicate; data shown are the average of three independent experiments. Cell Titer-Glo® assay was performed as per the manufacturer's instructions (Promega®). Briefly, 1000 cells/well were plated into 96-well plates and treated with a range of compound dosing. Cell viability was measured at the noted time points based on luminescence by the Cell Titer-Glo® assay (Promega®) and read on an Envision 2104 (PerkinElmer®, USA) according to the manufacturer's protocol.
sgRNAs targeting individual genes were subcloned by standard methodologies within pLKO.5-EFGP. Kelly, SIMA, BE2C, and NGP cells were infected with lenticas9 followed by blasticidin selection. Stable expression of cas9 was established by western blotting of protein lysates using cas9 antibody (Cell Signaling Technology®). Following infection of pLKO.5-EGFP-sgRNA lentivirus, cells were cultured for the identified times prior to evaluation. BE2C cells were infected with pLC-zsgreen or pLC-CRBN lentiviruses and selected using 500 μg/mL hygromycin (Invitrogen™)

Series [3] in a line: Maximum tolerated dose testing, daily IP dosing in CD1 mice. It counts as in vivo. As for the experimental part: For toxicity studies, four female CD1 mice (Charles River Laboratories) were injected intraperitoneally (IP) with single doses of 10 mg/Kg (R,S)-JQAD1 solubilized in 10% hydroxypropyl β-cyclodextrin (Sigma-Aldrich®) in sterile water. Following injection, blood concentration of (R,S)-JQAD1 was measured by serial measurements of animal serum at time points out to 24 h, by liquid chromatography with tandem mass spectrometry (LC-MS/MS) analysis. Pharmacokinetics were performed at ChemPartner in Shanghai, China, using LC-MS/MS method and pharmacokinetics parameters (Tmax, Cmax, T1/2, AUC, etc.) calculated with WinNonlin® V 6.2 statistics software (Pharsight Corporation) using a noncompartmental model. For maximally tolerated dose (MTD) testing, six female CD1 mice were treated with daily IP doses of (R,S)-JQAD1 at 10, 20, or 40 mg/kg. Animals were monitored for animal weight, grooming and behavior daily without noted effects. […] Animal weights, behavior and grooming were monitored daily, for a total of 21 days. […] Blood samples were obtained by retro-orbital puncture and blood analyzed at the Small Animal Imaging Facility at Beth Israel Deaconess Medical Center (Boston, MA), on a Hemavet® 9500FS (Drew Scientific) for blood counts, creatinine, AST, ALT, ALP, GGTP, and BUN measurements.

For `C[C@H](N(Cc1ccc(F)cc1)C(=O)CN1C(=O)O[C@@]2(CCc3cc(NC(=O)CCCCCCCCCCCNc4ccc5c(c4)C(=O)N(C4CCC(=O)NC4=O)C5=O)ccc32)C1=O)C(F)(F)F` (stereo partly drawn) [JQAD1, 12-((2-(2,6-dioxopiperidin-3-yl)-1,3-dioxoisoindolin-5-yl)amino)-N-((R)-3′-(2-((4-fluorobenzyl)((S)-1,1,1-trifluoropropan-2-yl)amino)-2-oxoethyl)-2′,4′-dioxo-2,3-dihydrospiro[indene-1,5′-oxazolidin]-5-yl)dodecanamide], in series [1] (40 mg/Kg daily for 14 days), the “expression of CRC genes and MYCN in tumors” value was “among the most downregulated genes”. The “RNA expression of super-enhancer versus typical-enhancer regulated genes in tumor cells” value in series [1] (40 mg/Kg once daily, p<0.0001) is listed as “preferential downregulation of genes regulated by super-enhancers compared with those regulated by typical enhancers”. Further, in series [2], the “growth of CRBN-knockout Kelly cells” value is “resistant” and the “growth of control-edited Kelly cells” value is on record as “potently killed”. The “tolerability / animal weight” value in series [3] (daily IP at increasing doses (10, 20, 40 mg/kg), CD1 mice) was “well tolerated with no signs of animal weight loss; also recorded: no effect on animal weight”. For the same compound, in series [3] (mouse, IP), the “maximal dosage for single-dose IP administration without evident toxicity” value came to 40 mg/kg.
